Laboratory results from patent publication US20210113692A1, “DOSING REGIMEN” (IMCLONE, LLC, priority 2016, published 2021).
“And” between values parts separate entries of the source, which are not always exact repeats. Equal entries are not always repeated. “Also recorded” adds a separate entry of the source. Where two headings read alike, the source gives them in different places.

Assays:
[1] = test system: patients with advanced STS; assay: Randomized Phase 2 Study of doxorubicin with or without olaratumab (NCT01185964): PFS, OS, ORR; format: in vivo, human; conditions: for median OS / median PFS: Phase 2 Study
Protocol: The Study is an open-label, multicenter, Phase 2 trial in which patients with advanced STS not amenable to treatment with surgery or radiotherapy are treated with olaratumab in combination with doxorubicin or doxorubicin alone.
Enrolled patients who meet all eligibility criteria are randomized 1:1 to one of two treatment arms. Arm A or Arm B. Arm A patients receive olaratumab in combination with doxorubicin (hereinafter the “Combination Arm”) and Ann B patients receive doxorubicin alone (hereinafter the “Doxonthicin Arm”), Randomization of this Study is performed according to a dynamic randomization algorithm using 4 pre-defined risk factors: PDGFRα expression (positive vs. negative), number of previous lines of treatment (0 vs. 1+ lines), histological tumor type (i.e., leiomyosarcoma vs. synovial sarcoma vs. other tumor type), and ECOG performance status (0-1 vs. 2). This dynamic randomization procedure is used to minimize imbalance between treatment groups. To determine tumor type and PDGFRCL expression in patients, a tumor sample from either a biopsy or previously archived tumor tissue sample is sufficient. Biopsy is required to be performed within 21 days prior to randomization; archived tissue sample must also be available within this timeframe.
Combination Arm: 66 patients randomized in the Combination Ann receive 15 mg/kg of olaratumab on Days 1 and 8 of each 21-day treatment cycle, in combination with 75 mg/m^2 doxorubicin administered on Day 1 of each cycle. (Note: if premedication is required prior to the first doxorubicin infusion, this is to be done after the completion of olaratumab infusion, not before the olaratumab infusion. This premedication may be administered within the hour that follows completion of the olaratumab infusion.) The actual (not planned) administration of each doxorubicin infusion defines Day 1 of each 21-day treatment cycle. The combination treatment just described is to continue for up to 8 cycles at the investigator's discretion. During Cycles 5 through 8, patients being treated with doxorubicin may also be administered 750 mg/m^2 dexrazoxane on Day 1 of each cycle, (at the investigator's discretion) prior to doxorubicin on Day 1 of each 21-day cycle. If the dose of doxorubicin is reduced at any point in the Study, the dose of dexrazoxane is to be reduced accordingly, maintaining a dosage ratio of 10:1. For example, if doxorubicin is reduced to 60 mg/m^2, then dexrazoxane is to be reduced to 600 mg/m^2. Doxorubicin may be administered within the hour that follows completion of the olaratumab infusion. In the absence of PD or other withdrawal criteria, patients in the Combination Arm who have completed eight cycles of therapy are to receive subsequent olaratumab monotherapy, administered on Days 1 and 8 of each 21-day cycle. Furthermore, if doxorubicin is discontinued (e.g., for reasons of toxicity) prior to end of cycle 8 and in the absence of withdrawal criteria, patients may continue to receive olaratumab monotherapy. For patients who discontinue olaratumab during the first 8 cycles of treatment, doxorubicin may be continued (for up to 8 cycles), provided no withdrawal criteria are met.
Doxorubicin Arm: 67 patients randomized in the Doxorubicin Arm receive 75 mg/m^2 doxorubicin on Day 1 of each cycle, for up to 8 cycles at the investigator's discretion. The actual (not planned) administration of each doxorubicin infusion defines Day 1 of each 21-day treatment cycle. During cycles 5 through 8, 750 mg/m^2 dexrazoxane may also be administered on Day 1 of each cycle, (at the investigator's discretion) prior to doxorubicin on Day 1 of each 21-day cycle. If the dose of doxorubicin is reduced at any point in the Study, the dose of dexrazoxane is to be reduced accordingly, maintaining a dosage ratio of 10:1. For example, if doxorubicin is reduced to 60 mg/m^2, then dexrazoxane is to be reduced to 600 mg/m^2. […]

[2] = test system: patients with advanced STS; assay: Matched case-control exposure-response analysis of OS and PFS across quartiles of olaratumab serum levels; format: in vivo, human
Protocol: (§1) Pharmacokinetics and Exposure-response Analysis of The “Study”: The PFS, OS, PK and safety data from patients who received olaratumab in the Study, as discussed above, were analyzed.
(§2) The effect of olaratumab serum levels is explored using average serum concentration (Cavg) and trough serum concentration after cycle 1 (Cmin1). The PFS and OS data are analyzed using a matched case-control (MCC) analysis across quartiles of olaratumab serum levels and a time-to-event (survival) model with a constant baseline hazard and a Hill function to describe the effect of olaratumab. The rate of treatment-emergent adverse events (TEAEs) is compared across quartiles of olaratumab exposure.

[3] = set-up: species or system human; conditions: in vivo
Excerpt: The rate of treatment-emergent adverse events (TEAEs) is compared across quartiles of olaratumab exposure.

[4] = Olaratumab serum concentrations (pharmacokinetics) in the Study
Protocol: Serum levels can be measured by an enzyme-linked immunosorbent assay; a test that uses antibodies and color change to identify and quantify a substance.
as §1, §2

[5] = Population PK (PopPK) model using PK data from 4 Phase 2 studies; format: in vivo, human; conditions: irrespective of indication
Excerpt: • Population Pharmacokinetics Analysis of the Four Phase 2 Clinical Studies: A population PK (PopPK) model was developed using PK data from 4 Phase 2 studies (www.clinicaltrials.gov study numbers NCT00918203 (A Randomized Phase 2 Study of Human Anti-PDGFRα. Monoclonal Antibody (IMC-3G3) With Paclitaxel/Carboplatin or Paclitaxel/Carboplatin Alone in Previously Untreated Patients With Locally Advanced or Metastatic Non-Small Cell Lung Cancer), NCT01185964 (A Phase 1b/2 Randomized Phase 2 Study Evaluating the Efficacy of Doxorubicin With or Without a Human Anti-PDGFRα Monoclonal Antibody (IMC-3G3) in the Treatment of Advanced Soft Tissue Sarcoma), NCT00895180 (An Open Label, Phase 2 Study Evaluating the Safety and Efficacy of IMC-3G3 or MC-1121B in Patients With Recurrent Glioblastoma Multiforme), and NCT01316263 (A Phase 2 Study of a Human Anti-PDGFRα Monoclonal Antibody (IMC-3G3) in Previously Treated Patients With Unresectable and/or Metastatic Gastrointestinal Stromal Tumors (GIST)). […] A Randomized, Double Blind, Placebo-Controlled, Phase 3 Trial of Doxorubicin Plus Olaratumab Versus Doxorubicin Plus Placebo in Patients With Advanced Soft Tissue Sarcoma (the “Phase 3 Study”) The present invention is being further tested in the Phase 3 Study (trial number NCT02451943 available on clinicaltrials.gov https://clinicaltrials.gov/ct2/show/NCT02451943?term=ANNOUNCE&rank=1).

[6] = test system: patients with advanced STS; assay: Time-to-event (survival) model of the effect of olaratumab serum levels on PFS/OS hazard; format: in vivo, human; conditions: Cmin1-based and Cavg-based models
Excerpt: Further, FIG. 1, illustrates the predicted effect of olaratumab on HR for PFS. In FIG. 1. PFS as predicted by Cmin1-based model is shown in the left panel and the Cavg-based model is shown in the right panel. The solid red lines describe the change in HR as a function of Cmin1 and Cavg; the grey histograms describe the distribution of olaratumab Cmin1 and Cavg in the Study experimental arm together with their quartiles (dashed blue lines) the green dashed lines indicate ECmin150 and ECavg50.

[7] = Cavg Q1 (56 < 134.4) μg/mL, 15 patients per group
[8] = Cavg Q3 (≥175.2-<249.9) μg/mL, 15 patients per group
[9] = Cavg Q4 (≥249.9-347.3) μg/mL, 16 patients per group
[10] = Cmin1 Q1 (12.3-<62.8) μg/mL, 15 patients per group
[11] = Cmin1 Q2 (≥62.8-<86.9) μg/mL, 16 patients per group
[12] = Cmin1 Q4 (≥105.6-188.1) μg/mL, 16 patients per group

COc1cccc2c1C(=O)c1c(O)c3c(c(O)c1C2=O)C[C@@](O)(C(=O)CO)C[C@@H]3O[C@H]1C[C@H](N)[C@H](O)[C@H](C)O1 [doxorubicin]
median OS ([1]; final analysis): 14.7 months
median PFS ([1]; final analysis): 4.1 months
median progression-free survival, blinded independent retrospective review ([1]; in vivo): 4.4 months
objective response rate, independent assessment ([1]; in vivo): 7.5%
objective response rate ([1]; investigator assessment, RECIST 1.1): 11.9%
Number of events, overall survival [2, 7]: 15/13
Number of events, progression-free survival [2, 7]: 15/14
Number of events, progression-free survival ([2]; Cavg Q2 (≥134.4-<175,2) μg/mL, 16 patients per group): 16/10
Number of events, overall survival ([2]; Cavg Q2 (≥134.4-<175.2) μg/mL, 16 patients per group): 16/14
Number of events, overall survival [2, 8]: 15/7
Number of events, progression-free survival [2, 8]: 15/8
Number of events, overall survival [2, 9]: 16/11
Number of events, progression-free survival [2, 9]: 16/12
Number of events, overall survival [2, 10]: 15/12
Number of events, progression-free survival [2, 10]: 15/11
Number of events, overall survival [2, 11]: 16/13
Number of events, progression-free survival [2, 11]: 16/9
Number of events, overall survival ([2]; Cmin1 Q3 (≥86.9-<105.6) μg/mL, 15 patients per group): 15/8
Number of events, progression-free survival ([2]; Cmin1 Q3 (≥86.9=<105.6) μg/mL, 15 patients per group): 15/10
Number of events, overall survival [2, 12]: 16/10
Number of events, progression-free survival [2, 12]: 16/11
Mucositis Grade <=2 (consolidated TEAE), number of patients ([3]; human): 20
Mucositis Grade <=2, % (consolidated TEAE) ([3]; human): (30.8) %
Mucositis Grade >2 (consolidated TEAE), number of patients ([3]; human): 3
Mucositis Grade >2, % (consolidated TEAE) ([3]; human): (4.6) %
Mucositis Grade >=4 (consolidated TEAE), number of patients ([3]; human): 0
Neutropenia Grade <=2 (consolidated TEAE), number of patients ([3]; human): 3
Neutropenia Grade <=2, % (consolidated TEAE) ([3]; human): (4.6) %
Neutropenia Grade >2 (consolidated TEAE), number of patients ([3]; human): 22
Neutropenia Grade >2, % (consolidated TEAE) ([3]; human): (33.8) %
Neutropenia Grade >=4 (consolidated TEAE), number of patients ([3]; human): 17
Neutropenia Grade >=4, % (consolidated TEAE) ([3]; human): (26.2) %
TEAE Overall Grade <=2, % ([3]; human): (29.2) %
TEAE Overall Grade <=2, number of patients ([3]; human): 19
TEAE Overall Grade >2, % ([3]; human): (69.2) %
TEAE Overall Grade >2, number of patients ([3]; human): 45
TEAE Overall Grade >=4, % ([3]; human): (30.8) %
TEAE Overall Grade >=4, number of patients ([3]; human): 20

olaratumab
stratified HR for overall survival ([1]; Combination Arm vs Doxorubicin Arm, final analysis): 0.46
median OS ([1]; final analysis): 26.5 months
median PFS ([1]; final analysis): 6.6 months
stratified HR for progression-free survival ([1]; olaratumab plus doxorubicin vs doxorubicin, final analysis): 0.672
OS improvement in the lowest exposure quartile ([2]; Cmin1<63 μg/mL, N=15): no improvement in OS; also recorded: did not show OS improvement; also recorded: did not have OS
PFS and OS improvement in the upper quartiles of olaratumab serum exposure ([2]; regardless of Cmin at end of cycle 1 or average serum concentration): greater improvement in progression-free survival and overall survival
mean maximum serum concentration (Cmax) after the first dose ([4]; 15 mg/kg, cycle 1): 284 µg/mL
mean maximum serum concentration (Cmax) after the second dose ([4]; 15 mg/kg, cycle 1): 293 µg/mL
Cavg range ([4]; Overall, n = 62, average over entire treatment): 56.0 to 347.3 µg/mL
Cmin1 range ([4]; Overall, n = 62, trough at the end of Cycle 1): 12.3 to 188.1 µg/mL
mean trough serum concentration (Cmin) at the end of the cycle ([4]; cycle 1): 66.5 µg/mL
individual apparent terminal elimination half-life ([4]; during cycle 3): 6.67 days and 14.4 days
cycle in which steady state is reached ([4]; in vivo): 3 cycle
cycle in which steady-state olaratumab serum levels are achieved (PopPK model) [5]: ≥ 3 Cycle
Mucositis Grade <=2 (consolidated TEAE), number of patients [3]: 32
Mucositis Grade <=2, % (consolidated TEAE) [3]: (51.6) %
Mucositis Grade >2 (consolidated TEAE), number of patients [3]: 2
Mucositis Grade >2, % (consolidated TEAE) [3]: (3.2) %
Mucositis Grade >=4 (consolidated TEAE), number of patients [3]: 0
Neutropenia Grade <=2 (consolidated TEAE), number of patients [3]: 3
Neutropenia Grade <=2, % (consolidated TEAE) [3]: (4.8) %
Neutropenia Grade >2 (consolidated TEAE), number of patients [3]: 35
Neutropenia Grade >2, % (consolidated TEAE) [3]: (56.5) %
Neutropenia Grade >=4 (consolidated TEAE), number of patients [3]: 23
Neutropenia Grade >=4, % (consolidated TEAE) [3]: (37.1) %
TEAE Overall Grade <=2, % [3]: (19.4) %
TEAE Overall Grade <=2, number of patients [3]: 12
TEAE Overall Grade >2, % [3]: (79.0) %
TEAE Overall Grade >2, number of patients [3]: 49
TEAE Overall Grade >=4, % [3]: (40.3) %
TEAE Overall Grade >=4, number of patients [3]: 25
predicted effect of olaratumab on HR for PFS (FIG. 1) [6]: not predicted to change until the Cmin1 or Cavg reaches values corresponding to the 25th percentile of their distribution in the study
